In US8501794B2, “Compounds as cannabinoid receptor ligands” (priority 2007, dated 2013):

Tests used:
rat CB2 [1] = target: T1, rat CB2 (Rattus norvegicus, UniProt Q9QZN9); experiment: rat CB2 radioligand binding assay ([3H]CP-55,940 competition); parameters: expressed in transfected cells; host or cells: HEK293
T1 sequence (Q9QZN9 1-360): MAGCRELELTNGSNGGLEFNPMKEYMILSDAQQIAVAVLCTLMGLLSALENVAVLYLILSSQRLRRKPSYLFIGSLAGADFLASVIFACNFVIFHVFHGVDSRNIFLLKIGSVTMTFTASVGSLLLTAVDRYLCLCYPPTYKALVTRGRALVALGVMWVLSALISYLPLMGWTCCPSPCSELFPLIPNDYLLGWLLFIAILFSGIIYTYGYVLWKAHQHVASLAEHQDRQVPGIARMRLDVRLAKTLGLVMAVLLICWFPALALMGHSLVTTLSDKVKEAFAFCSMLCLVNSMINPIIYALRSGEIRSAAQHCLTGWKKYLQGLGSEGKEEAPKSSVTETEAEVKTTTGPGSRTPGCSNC

human CB2 receptors = target: T2, human CB2 receptors (Homo sapiens, UniProt P34972); experiment: human CB2 radioligand binding assay ([3H]CP-55,940 competition)
T2 construct: expressed in transfected cells; host or cells: HEK293

rat CB2 [2] = target: T1, rat CB2; experiment: rat CB2 cyclase functional assay (HitHunter cAMP, HEK cells); format: cell-based; parameters: expressed in transfected cells; host or cells: HEK; conditions: forskolin 18 μM

T2 sequence (P34972 whole entry): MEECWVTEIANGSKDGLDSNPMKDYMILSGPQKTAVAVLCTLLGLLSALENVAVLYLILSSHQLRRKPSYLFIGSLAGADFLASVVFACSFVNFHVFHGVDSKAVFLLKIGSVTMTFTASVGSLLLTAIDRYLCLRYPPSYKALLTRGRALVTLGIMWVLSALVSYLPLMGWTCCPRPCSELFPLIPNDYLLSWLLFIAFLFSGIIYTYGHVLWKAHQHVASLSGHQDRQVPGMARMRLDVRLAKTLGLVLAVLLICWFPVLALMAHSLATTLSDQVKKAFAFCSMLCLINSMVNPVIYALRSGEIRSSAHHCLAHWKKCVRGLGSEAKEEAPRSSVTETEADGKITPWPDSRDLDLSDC

| Compound | Ki (rat CB2 [1]) | Ki (human CB2 receptors) | EC50 (rat CB2 [2]) |
| --- | --- | --- | --- |
| COc1ccc(Cl)cc1C(=O)/N=c1\sn(C(C)(C)C)cc1CCN=[N+]=[N-] [Example 14, N-[(5Z)-4-(2-azidoethyl)-2-tert-butylisothiazol-5(2H)-ylidene]-5-chloro-2-methoxybenzamide] | 2.4 nM | 26 nM | 0.71 nM |
| CCOCc1cn(C(C)(C)C)s/c1=N\C(=O)c1cc(Cl)ccc1OC [Example 29, N-[(5Z)-2-tert-butyl-4-(ethoxymethyl)isothiazol-5(2H)-ylidene]-5-chloro-2-methoxybenzamide] | 13 nM | 180 nM | 0.41 nM |
| CCCCc1cn(C(C)(C)C)s/c1=N\C(=O)c1cc(C=NO)ccc1OC [Example 59, N-[(5Z)-4-butyl-2-tert-butylisothiazol-5(2H)-ylidene]-5-[(hydroxyimino)methyl]-2-methoxybenzamide] | 3.3 nM | 54 nM | 0.12 nM |
| COc1ccc(Cl)cc1C(=O)/N=c1\sn(C(C)(C)C)cc1CC1CC1 [Example 8, N-[(5Z)-2-tert-butyl-4-(cyclopropylmethyl)isothiazol-5(2H)-ylidene]-5-chloro-2-methoxybenzamide] | 1.1 nM | 4 nM | 1 nM |
| COc1ccc(C(F)(F)F)cc1C(=O)/N=c1\sn(C(C)(C)C)cc1CCCC(C)=O [Example 76, N-[(5Z)-2-tert-butyl-4-(4-oxopentyl)isothiazol-5(2H)-ylidene]-2-methoxy-5-(trifluoromethyl)benzamide] | 2.2 nM | 24 nM | 0.13 nM |
| CCCCc1cn(C(C)(C)C)s/c1=N\C(=O)[C@@]1(C)CC[C@@H](C(=O)OCC)C1(C)C [Example 176, Ethyl (1R,3S)-3-({[(5Z)-4-butyl-2-tert-butylisothiazol-5(2H)-ylidene]amino}carbonyl)-2,2,3-trimethylcyclopentanecarboxylate] | 7 nM | 16 nM | 1.1 nM |
| COc1ccc(Cl)cc1C(=O)/N=c1\sn(C(C)(C)C)cc1Cc1ccco1 [Example 50, N-[(5Z)-2-tert-butyl-4-(2-furylmethyl)isothiazol-5(2H)-ylidene]-5-chloro-2-methoxybenzamide] | 2.5 nM | 19 nM | 0.13 nM |
| COc1ccc(Cl)cc1C(=O)/N=c1\sn(C(C)(C)C)cc1CCCC(C)(F)F [Example 86, N-[(5Z)-2-tert-butyl-4-(4,4-difluoropentyl)isothiazol-5(2H)-ylidene]-5-chloro-2-methoxybenzamide] | 0.64 nM | 4.4 nM | 0.12 nM |
| COc1ccc(Cl)cc1C(=O)/N=c1\sn(C(C)(C)C)cc1C(O)C1CCC1 (stereo not drawn) [Example 34, N-[(5Z)-2-tert-butyl-4-[cyclobutyl(hydroxy)methyl]isothiazol-5(2H)-ylidene]-5-chloro-2-methoxybenzamide] | 1.2 nM | 3.6 nM | 0.4 nM |
| C=CCc1cn(C(C)(C)C)s/c1=N\C(=O)c1cc(Cl)ccc1OC [Example 6, N-[(5Z)-4-allyl-2-tert-butylisothiazol-5(2H)-ylidene]-5-chloro-2-methoxybenzamide] | 16 nM | 210 nM | 2.4 nM |
| COc1ccc(Cl)cc1C(=O)/N=c1\sn(C(C)(C)C)cc1COC(C)C [Example 72, N-[(5Z)-2-tert-butyl-4-(isopropoxymethyl)isothiazol-5(2H)-ylidene]-5-chloro-2-methoxybenzamide] | 7.4 nM | 19 nM | 0.054 nM |
| CCCCc1cn(C(C)(C)C)s/c1=N\C(=O)[C@]1(C)CC[C@H](C(=O)O)C1(C)C [Example 173, (1S,3R)-3-({[(5Z)-4-butyl-2-tert-butylisothiazol-5(2H)-ylidene]amino}carbonyl)-2,2,3-trimethylcyclopentanecarboxylic acid] | 77 nM | 107 nM | 3.5 nM |
